Source: patent US8304547B2, “Azolecarboxamide compound or salt thereof” (Astellas Pharma Inc., priority 2007, dated 2012)
Structures can show the parent of a compound that is named as a salt.

Experiments:
human trkA receptor = molecular target: T1, human trkA receptor (Homo sapiens, UniProt P04629); experiment: trkA receptor inhibitory activity using a cell expressing a nerve growth factor receptor (NGF-dependent increase of calcium concentration in cells, FLIPR); assay type: cell-based; details: HEK293 cells stably expressing human trkA receptor; NGF-stimulated change in Ca concentration in cells
T1 construct: expressed in transfected cells
T1 sequence (P04629 33-796): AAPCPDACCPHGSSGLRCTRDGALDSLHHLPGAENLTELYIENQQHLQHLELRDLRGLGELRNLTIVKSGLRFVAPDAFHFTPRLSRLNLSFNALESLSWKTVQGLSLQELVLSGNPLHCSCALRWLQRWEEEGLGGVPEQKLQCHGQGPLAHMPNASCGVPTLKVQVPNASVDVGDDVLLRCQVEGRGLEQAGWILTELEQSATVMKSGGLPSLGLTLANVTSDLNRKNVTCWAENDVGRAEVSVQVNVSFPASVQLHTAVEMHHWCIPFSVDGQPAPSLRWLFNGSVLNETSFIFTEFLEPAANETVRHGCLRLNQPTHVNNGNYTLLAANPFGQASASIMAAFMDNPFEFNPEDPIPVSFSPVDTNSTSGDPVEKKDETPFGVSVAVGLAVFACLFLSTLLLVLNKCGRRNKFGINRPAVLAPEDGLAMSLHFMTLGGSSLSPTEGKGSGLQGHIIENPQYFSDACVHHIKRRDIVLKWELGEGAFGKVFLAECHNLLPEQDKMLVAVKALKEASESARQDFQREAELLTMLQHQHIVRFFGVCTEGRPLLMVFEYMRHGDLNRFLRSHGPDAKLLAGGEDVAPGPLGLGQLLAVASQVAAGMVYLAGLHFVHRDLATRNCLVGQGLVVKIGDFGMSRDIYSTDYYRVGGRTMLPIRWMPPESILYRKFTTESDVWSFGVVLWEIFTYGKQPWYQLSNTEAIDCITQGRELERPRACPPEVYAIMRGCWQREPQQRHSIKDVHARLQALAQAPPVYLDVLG
Protocol: Experiment to Measure trkA Receptor Inhibitory Activity Using a Cell Expressing a Nerve Growth Factor Receptor (trkA Receptor)
The trkA receptor inhibitory activity was measured by using the increase in a ligand-dependent calcium concentration in cells as an index. HEK293 cells (American Type Culture Collection) that stably expressed a human trkA receptor were dispensed onto a 96-well poly-D-lysine-coated plate (Product Name: Biocoat, PDL96W black/clear, by Nippon Becton Dickinson) to a 2×10^4 cells/well on the day before the experiment, and incubated overnight at 37° C. under 5% carbon dioxide (CO2) in a culture medium containing 10% fetal bovine serum (FBS) (Product Name: DMEM, Invitrogen Corporation). The culture medium was replaced by a loading buffer (a washing solution containing a 1.5 μM fluorescent-labelled indicator (Product Name: Fluo4-AM, Tong Ren Tang Technologies Co. Ltd.): a Hank's balanced salt solution (HBSS), 20 mM 2-[4-(2-hydroxyethyl)-1-piperazinyl]ethanesulfonic acid (HEPES)-sodium hydroxide (NaOH), 2.5 mM Probenecid, and 0.1% bovine serum albumin (BSA)), and left to stand at room temperature for 3 hours, and the cells were washed using a plate washer (Product Name: ELx405, BIO-TEK instrument Corporation) in which a washing solution had been set up. The compound that had been preliminarily dissolved and diluted in a washing solution was added thereto, and set up in a system for measuring a calcium (Ca) concentration in a cell (Product Name: FLIPR, Molecular Devices Corporation). After 5 minutes, a nerve growth factor (NGF, mouse derived 2.5S, Alomone) corresponding to 80% stimulation of a maximum response was added (to a final concentration of about 100 to 150 ng/ml) to measure the change in Ca concentrations in cells. The difference between a maximum value and a minimum value in the change of Ca concentrations in cells was determined, and kept as measurement data. With a response upon addition of NGF being set at 0%, and a response upon addition of a buffer being set at 100%, the concentration causing 50% inhibition was determined as an IC50 value. In the table, Ex represents Example Compound No. as below (the same applies hereinafter). From the results of this test, it was confirmed that the representative compounds of the present invention as below have a trkA receptor inhibitory action.

[1] = tested on: rat having urinary frequency caused by cyclophosphamide (CPA); experiment: Action on a rat having urinary frequency caused by cyclophosphamide (CPA); assay type: in vivo; details: CPA-treated Wistar female rat, value before administration = 100%
Protocol: Action of the Compound on a Rat Having Urinary Frequency Caused by Cyclophosphamide (CPA)
CPA (150 mg/5 ml/kg) was intraperitoneally administered to a Wistar female rat (Charles River Laboratories), and after 2 days, the experiment was carried out. It was forced to be orally administered with distilled water (30 ml/kg), and then confined in a metabolic cage, and urine weight and urination frequency were continuously measured for 1 hour. 3 or 10 mg/5 ml/kg of the compound (0.5% methylcellulose solution), or 5 ml/kg of a solvent (0.5% methylcellulose solution) was orally administered, and after 5 to 30 minutes, urination functions were measured after water-loading in the same manner as described above. A total urine weight was divided by the total urination frequency to determine an effective bladder capacity. With the value before administration of the compound being set at 100%, a rate of change in the effective bladder capacity caused by administration of the compound was determined.
In this test, at 2 days after CPA treatment, the effective bladder capacity had decreased (about 0.5 ml), indicating urinary frequency.

[2] = tested on: enhanced vascular permeability caused by Rat NGF; experiment: Inhibitory activity on enhanced vascular permeability caused by Rat NGF (Evans blue); assay type: in vivo; details: Wistar female rat, 10 mg/kg oral, NGF intracutaneously 60 minutes after administration; for inhibition in vivo at 10 mg/kg: 1 h, read-out: Inhibitory rate
Protocol: Evaluation of the Inhibitory Activity of the Compound on Enhanced Vascular Permeability Caused by Rat NGF
The in vivo NGF inhibitory activity of the compound was examined. A Wistar female rat (Japan SLC) was forced to be orally administered with the compound (0.5% methylcellulose solution) 10 mg/3 ml/kg or a solvent (0.5% methylcellulose solution) 3 ml/kg. Under ether anesthesia performed at 60 minutes after administration, physiological saline or 1 μg/ml NGF (NGF, mouse derived 2.5 S, Alomone) was intracutaneously administered to the back at 50 μl/site, and then immediately a 1% Evans blue solution (dissolved in physiological saline) was administered through the caudal vein at 3 ml/kg. At a time point of 10 minutes after administration, the skin on the back was taken, and shaken in formamide for 16 hours. After shaking, an absorbance of Evans blue extracted in formamide was measured by an absorbance meter (wavelength: 620 nm), and the concentration was determined by a calibration curve method. A value obtained by subtracting the concentration of Evans blue at a site administered with physiological saline from the concentration of Evans blue at a site administered with NGF was determined as an NGF-dependent action, and an inhibitory rate of the compound group was determined with a group administered with a solvent being set at 100%. In this test, it was confirmed that the representative compounds as below of the present invention have an excellent inhibitory action on enhanced vascular permeability caused by Rat NGF.

[3] = oral dose 10 mg/kg, evaluation period 15-75 minutes after administration
[4] = oral dose 10 mg/kg, evaluation period 5-65 minutes after administration

SMILES | IC50 (human trkA receptor) [nM] | inhibition in vivo at 10 mg/kg [2] [%] | other results
COCCNC(=O)c1cc(CN2CCOCC2)ccc1NC(=O)c1csc(N2CCC(Oc3ncccn3)CC2)n1 [Example 564] | 3.1 | – | Rate in cange of effective bladder capacity [1, 3]: 146%; Inhibitory rate [2]: 90%
COC[C@@H](C)NC(=O)c1cc(CN2CCOCC2)ccc1NC(=O)c1csc(N2CC(OC)C2)n1 [Example 1439] | 25 | 76 | –
COCCNC(=O)c1cc(CN2CCOCC2)ccc1NC(=O)c1csc(N(C)CCOC)n1 [Example 1469] | 9.8 | 90 | –
O=C(Nc1ccccc1S(=O)(=O)C(F)F)c1csc(N2CCC(Oc3ncccn3)CC2)n1 [Example 611] | 2.1 | – | –
CO[C@H]1CCN(c2nc(C(=O)Nc3ccccc3C(=O)Nc3cccnc3)co2)C1 [Example 206] | 6.8 | – | Rate in cange of effective bladder capacity [1, 4]: 159%
COCCNC(=O)c1cc(CN2CCOCC2)ccc1NC(=O)c1csc(N2CC(OC)C2)n1 [Example 1435] | 36 | 71 | –
Nc1cc(-c2nc(C(=O)Nc3ccccc3C(=O)Nc3cccnc3)co2)ccn1 [Example 220] | 4.2 | – | –
COCCNC(=O)c1cc(CN2CCOCC2)ccc1NC(=O)c1csc(N2CC[C@H](F)C2)n1 [Example 1470] | 18 | 76 | –
CN(CC1CCOCC1)c1nc(C(=O)Nc2ccccc2C(=O)Nc2cccnc2)cs1 [Ex 30] | 0.57 | 90 | –
COCCN(C)c1nc(C(=O)Nc2ccccc2C(=O)NC2CCOCC2)co1 [Example 361] | 35 | 78 | Rate in cange of effective bladder capacity [1, 4]: 144%
CCOCc1ccc(NC(=O)c2csc(N3CC[C@H](OC)C3)n2)c(C(=O)NCCOC)c1 [Example 1449] | 8.8 | 76 | –

Further compounds by falling IC50 (human trkA receptor), results first:

IC50 (human trkA receptor) [nM] | SMILES | inhibition in vivo at 10 mg/kg [2] [%] | other results
27 | CCOC1CCN(c2nc(C(=O)Nc3ccccc3C(=O)NC3CCOCC3)cs2)CC1 [Ex 28] | 92 | –
12 | COCCNC(=O)c1cc(CN2CCO[C@@H](C)C2)ccc1NC(=O)c1csc(N2CC[C@H](OC)C2)n1 [Example 1181, N-(2-[(2-methoxyethyl)carbamoyl]-4-{[(2S)-2-methylmorpholin-4-yl]methyl}phenyl)-2-[(3S)-3-methoxypyrrolidin-1-yl]-1,3-thiazole-4-carboxamide fumarate] | 81 | –
9.9 | COCCNC(=O)c1cc(CN2CCOCC2(C)C)ccc1NC(=O)c1csc(N2CC[C@H](OC)C2)n1 [Example 1343] | 87 | –
6.9 | O=C(Nc1ccccc1C(=O)Nc1cccnc1)c1coc(N2CCOCC2)n1 [Ex 11] | 69 | –
6.8 | CN(CC1CCOCC1)c1nc(C(=O)Nc2ccc(CN3CCOCC3)cc2C(=O)NC2CCOCC2)cs1 [Example 930] | – | Rate in cange of effective bladder capacity [1, 3]: 170%; Inhibitory rate [2]: 86%
5.4 | O=C(Nc1ccc(CO)cc1Cl)c1csc(N2CCC(Oc3ncccn3)CC2)n1 [Ex 3] | – | –
2.9 | COCCN(C)c1nc(C(=O)Nc2ccccc2C(=O)Nc2cccnc2)cs1 [Example 103] | 98 | Rate in cange of effective bladder capacity ([1]; oral dose 3 mg/kg, evaluation period 5-65 minutes after administration): 145%
1.7 | CC(=O)c1cc(C2(C#N)CC2)ccc1NC(=O)c1csc(N2CCC(Oc3ncccn3)CC2)n1 [Example 628] | – | –
1.1 | O=C(Nc1ccncc1C(=O)NC1CCOCC1)c1csc(N2CCC(Oc3ncccn3)CC2)n1 [Example 602] | – | Rate in cange of effective bladder capacity [1, 3]: 152%
